# Tested on: gastric cancer cell lines (AGS, KATOIII, MGC803, MKN28, MKN45 and SNU1) with silenced SCNN1B expression
# Assay: Demethylation treatment with 5-Aza; SCNN1B expression by semiquantitative RT-PCR
# Type: cell-based, human
# Conditions: 10 μM 5-Aza for 5 days; six cell lines with silenced SCNN1B; FIG. 4
# Description: Semiquantitative RT-PCR was performed in a total volume of 25 μL reaction containing 1× Premix Ex Taq (Takara, Ohtsu, Japan) and 5-10 ng cDNA. The PCR program started with an initial denaturation at 95° C. for 10 min, followed by 27-35 cycles (95° C. for 30 sec, annealing temperature for 30 sec, and 72° C. for 30 sec) of amplification, with a final extension at 72° C. for 10 min. The PCR bands were visualized under ultraviolet light and photographed. The expression of the target gene was normalized by the expression of house-keeping gene β-actin, which served as an internal control.
# Cells were seeded at a density of 1×10^5/100-mm dishes and grew for 24 hr. Cells were then treated with 10 μM 5-aza-2′-deoxycytidine (“5-Aza”) (Sigma-Aldrich) for 5 days. The 5-Aza was replenished every day. The gene expression of SCNN1B was evaluated using semiquantitative RT-PCR.
structure (smiles),measurement,value
"Nc1ncn([C@H]2C[C@H](O)[C@@H](CO)O2)c(=O)n1 [5-Aza, 5-aza-2′-deoxycytidine]",expression of SCNN1B after demethylation treatment,Restored expression of SCNN1B

# From patent US10724101B2, “Biomarker SCNN1B for gastric cancer” (The Chinese University of Hong Kong, priority 2016, dated 2020)
